Laboratory results reported in EPA's ToxValDB 9.5 (doi:10.2903/j.efsa.2010.1716).
Values after ≈ are worked out from the molar mass of the structure shown.

What was measured:
Apis mellifera = conditions: acute; duration: 48 hours; oral; unspecified; mortality
Bibionidae = conditions: chronic/long-term; duration: 28 days; seedling emergence
Danio rerio = conditions: acute; duration: 96 hours; mortality
Daphnia magna = conditions: chronic/long-term; duration: 21 days; reproduction
Oryctolagus sp. = conditions: reproduction developmental; body weight
Tagia sp. = conditions: acute; duration: 14 days; mortality
Aphidius rhopalosiphi = assay: LR50; higher = less toxic; conditions: not reported; mortality

Work on `c1ccc(CNc2ncnc3nc[nH]c23)cc1` [N-Benzyladenine] yielded an LD50 (Apis mellifera) of over 58.7 µg/piece, an NOEC (Bibionidae) of 4.52 mg/L and an LC50 (Colinus virginianus; acute, oral, diet, mortality) of over 2880 mg/kg-day. For the same compound, the LD50 (Colinus virginianus; acute, oral, mortality) was 1600 mg/kg-day, the NOEC (Colinus virginianus; reproduction developmental) was 41.3 mg/kg-day and the LC50 (Danio rerio) was 32 µg/mL (≈ 142 µM). It also gave an NOEC (Daphnia magna) of 4 mg/L, an NOAEL (Oryctolagus sp.) of under 10 mg/kg-day and an LD50 (Rattus norvegicus; acute, oral, mortality) of 1580 mg/kg-day. It also gave an NOEL (Rattus norvegicus; reproduction developmental, body weight) of 30 mg/kg-day, an LC50 (Tagia sp.) of over 1000 mg/kg and an LR50 (Aphidius rhopalosiphi) of 36.2 g/ha.
